The values that follow come from US12146196B2, “C-RAF mutants that confer resistance to RAF inhibitors” (DANA-FARBER CANCER INSTITUTE, INC., priority 2012, dated 2024).

In test [1] the test system is A375 cells expressing C-RAF resistance allele G361A. The experiment in a line: Pharmacologic growth inhibition assay, G361A cells. The following applies: A375 expressing C-RAF G361A vs WT-C-RAF. The class given is cell-based, human. As to the method:
(§1) GI50 values were calculated by determining the slope of the line connecting the data points that flanked the 50% point.

Test [2] deals with pMek1/2, pErk1/2. Nature of the test: Immunoblot of pMek/pErk in A375 cells expressing C-RAF alleles. The class given is cell-based, human. How it is done: (§2) Samples were extracted after washing twice with PBS and lysed with 150 mM NaCl, 50 mM Tris pH 7.5, 1 mM EDTA, PMSF, Sodium Fluoride, Sodium Orthovanadate and protease inhibitor cocktail in the presence of 1% NP-40. The protein content was estimated with protein assay reagent (Bio-Rad) according to the manufacturer's instructions. Equal amounts of whole cell lysates were loaded onto and separated by 8-16% SDS-PAGE ready-made gels. Proteins were transferred to polyvinylidene difluoride membranes in a Trans-Blot apparatus. Membranes were blocked with 5% skim milk in TBS containing 0.1% Tween 20 for 1 h at room temperature or overnight at 4° C. Membranes were then incubated with monoclonal or polyclonal antibody raised against the protein of interest for 1 h at room temperature or overnight at 4° C. followed by three washes with TBS containing 0.1% Tween 20. The immunoreactivity of the primary antibodies C-RAF, S259C-RAF, S338C-RAF, S621C-RAF, PERK, ERK, pMEK, MEK, 14-3-3ζ Flag (Cell Signaling), B-RAF (Santa Cruz Biotechnology) and actin (Sigma) was visualized with a secondary anti-rabbit (BD Transduction Laboratories) or anti-mouse (Santa Cruz Biotechnology) antibodies conjugated with horseradish peroxidase and subsequent development with ECL Plus (Amersham Biosciences) and autoradiography on X-OMAR TAR films. The bands were scanned and quantified by the Gel Doc system using the Quantity One software.
(In general: A western blot detects proteins with antibodies after separation by electrophoresis.)

For test [3], the system named is A375 cells expressing C-RAF resistance allele P261T. Nature of the test: Pharmacologic growth inhibition assay, P261T cells. In kind it is cell-based, human. Particulars: for increase of GI50 values compared to the WT: A375 expressing C-RAF P261T vs WT-C-RAF. As to the method:
as §1

Test [4] relates to A375 cells expressing C-RAF resistance allele S257P. The experiment in a line: Pharmacologic growth inhibition assay, S257P cells. The class given is cell-based, human. The following applies: for increase of GI50 values compared to the WT: A375 expressing C-RAF S257P vs WT-C-RAF. As to the method:
as §1

For test [5], the system named is C-RAF (S259, S338, S621). Nature of the test: Immunoblot of C-RAF phosphorylation sites S259, S338, S621. The class given is cell-based, human. Particulars: for S259 phosphorylation: A375 expressing resistance mutants. As to the method:
as §2

For test [6], the system named is A375 cells expressing WT-C-RAF. Nature of the test: Pharmacologic growth inhibition assay, WT-C-RAF cells. The following applies: Homo sapiens, A-375, 96 h.
In test [7] the test system is p-MEK, p-ERK. Nature of the test: Immunoblot of MEK/ERK signaling in 293T cells expressing C-RAF resistance mutants. The following applies: 2 μM. In kind it is cell-based, human. How it is done:
as §2, with “The immunoreactivity of the primary antibodies C-RAF, S259C-RAF, S338C-RAF, S621C-RAF, PERK, ERK, pMEK, MEK, 14-3-3ζ Flag (Cell Signaling), B-RAF (Santa Cruz Biotechnology) and actin (Sigma) was visualized with a secondary anti-rabbit (BD Transduction Laboratories) or anti-mouse (Santa Cruz Biotechnology) antibodies conjugated with horseradish peroxidase and subsequent development with ECL Plus (Amersham Biosciences) and autoradiography on X-OMAR TAR films.” left out

The subject of test [8] is C-RAF resistance mutants. Nature of the test: C-RAF kinase assay (293T). The class given is biochemical, human. The following applies: 293T cells treated with 2 μM vemurafenib prior to assay; all resistance alleles examined. As to the method:
The 293T cells (70% confluent) were transfected with 6 μg pc-DNA with His or V5 tag towards the C-terminal containing C-RAF-WT and C-RAF variant alleles. Cells were treated with vemurafenib (Allele Biotech) for 1 h and 48 h post-transfection, lysates were extracted by general protocol. Immunoprecipitation using cobalt beads was performed […] for 1 hr at 4° C. […] The phosphorylated MEK product was detected by immunostaining using a p-MEK antibody (Cell Signaling Technology), and relative p-MEK signals were quantified using densitometry, normalized to the amount of input C-RAF, and compared to C-RAF-WT as a reference.

For test [9], the target named is T1, C-RAF resistance mutants (Homo sapiens, UniProt P04049, G361A).
T1 construct: expressed in transfected cells
Nature of the test: C-RAF kinase assay (A375). In kind it is biochemical. Particulars: A375 expressing G361A; Vemurafenib 16 h. How it is done:
(§3) A375 cells infected with WT and mutant C-RAF alleles were cultured in the absence and presence of PLX4032 (Allele Biotech) for 16 h. Lysates were prepared with 150 mM NaCl, 50 mM Tris pH 7.5, 1 mM EDTA, PMSF, Sodium Fluoride, Sodium Orthovanadate and protease inhibitor cocktail in the presence of 1% NP-40. Immunoprecipitation with C-RAF antibody was performed overnight and bound beads were washed three times with lysis buffer, followed by kinase buffer (1×). […] The phosphorylated substrate MEK was detected by immunoblotting.

In test [10] the test system is C-RAF resistance mutants. Nature of the test: C-RAF kinase assay (A375). The class given is biochemical, human. The following applies: A375 expressing S257P, P261T and G361A; exposure to 2 μM vemurafenib. How it is done: as §3
Test [11] addresses B-RAF/C-RAF heterodimerization (Homo sapiens, UniProt P04049+P15056, V600E). The experiment in a line: Immunoprecipitation with C-RAF, bound B-RAF. The class given is cell-based. The following applies: A375 melanoma cells, wild-type C-RAF; 2 μM.
The test system of test [12] is B-RAF/C-RAF heterodimerization. Nature of the test: Immunoprecipitation with C-RAF, bound B-RAF. In kind it is cell-based, human.
The test system of test [13] is C-RAF homodimer. The experiment in a line: C-RAF homodimerization, Ni2+ bead pull-down of His-tagged C-RAF, anti-Flag immunoblot. The class given is cell-based, human. The following applies: 293T cells expressing C-RAF resistance mutants; 2 μM, 1 h. As to the method:
(A) 293T cells co-expressing His/V5-tagged and Flag-tagged C-RAF resistance mutants for 48 h were immunoprecipitated with Nickel (see Methods) to pull down His-tagged C-RAF, and Flag tagged C-RAF was assessed by immunoblotting. Input lysate was also assessed using antibodies that detected Flag-C-RAF, V5-C-RAF, total C-RAF, p-MEK, p-ERK and total ERK. (B) 293T cells co-expressing His/V5-tagged and Flag-tagged C-RAF resistance mutants were treated with either vehicle (DMSO) or 2 μM of vemurafenib for 1 h, and His/V5-tagged C-RAFwas immunoprecipitated as in (A) above. Input lysates were immunoblotted using antibodies recognizing C-RAF (S338), p-MEK, p-ERK, and actin (loading control). (C) In vitro C-Raf kinase activity was measured in cell extracts derived from 293T cells transiently expressing Flag-tagged empty vector (“C”), wild type C-RAF (“WT”), and C-RAF harboring the resistance mutants S257P, P261T, G361A and E478K. Assays were performed in the presence or absence of 2 μM vemurafenib (see Methods). […] (D) In vitro C-Raf kinase activity was measured in cell extracts derived from A375 cells (B-RAF^V600E) (“C”) and A375 stably expressing wild type C-RAF (“WT”), and C-RAF harboring the resistance mutants S257P, P261T, and G361A in the presence and absence of 2 μM vemurafenib. […]

In test [14] the test system is 14-3-3/C-RAF interaction. Nature of the test: Immunoprecipitation with C-RAF, bound 14-3-3ζ. The class given is cell-based, human. As to the method:
(§4) (A) 293/T cells transiently expressing the indicated C-RAF resistance mutants in the absence (−) or presence (+) of 2 μM vemurafenib for 1 h were immunoprecipitated with C-RAF and levels of bound protein (B-RAF and 14-3-3 ζ) (upper panels) was assessed by immunoblotting. Input lysate (lower panels) show 14-3-3 ζ, B-RAF, C-RAF, pMek1/2, pErk1/2, Mek, S338 C-RAF and actin. Results are representative of more than two independent experiments. (B) A375 cells stably expressing the indicated C-RAF resistance mutants in the presence and absence of 2 μM vemurafenib for 16 h were immunoprecipitated with C-RAF and levels of bound protein (B-RAF and 14-3-3 ζ) (upper panels) was assessed by immunoblotting. Input lysate was blotted for the same as in FIG. 7A. Results are representative of more than two independent experiments.
(§5) For immunoprecipitation with C-RAF antibody (BD Biosciences) protein G-Sepharose slurry (Thermo Scientific) was washed with 1×PBS and incubated with C-RAF antibody (BD Biosciences) or normal mouse IgG (control) for 1 h at 4° C. After three washes with lysis buffer, the beads were incubated with whole cell lysates (0.5 mg of total protein) for 2 h and then washed three times with lysis buffer. The proteins were then eluted by boiling in 1×SDS-sample buffer.

Test [15] has as its target T2, 14-3-3/C-RAF interaction (Homo sapiens, UniProt P04049).
T2 construct: expressed in transfected cells; 14-3-3 ζ endogenous
Nature of the test: Immunoprecipitation with C-RAF, bound 14-3-3ζ. In kind it is cell-based. The following applies: A375 cells (BRAF V600E). How it is done:
as §4, §5

Where [16] appears, read: A375 expressing S257P, P261T and G361A, PLX4720 2 μM 16 h.

With `COC(=O)N[C@@H](C)CNc1nccc(-c2cn(C(C)C)nc2-c2cc(Cl)cc(NS(C)(=O)=O)c2F)n1` [(S)-methyl 1-(4-(3-(5-chloro-2-fluoro-3-(methylsulfonamido)phenyl)-1-isopropyl-1H-pyrazol-4-yl)pyrimidin-2-ylamino)propan-2-ylcarbamate], in test [1], the “increase of GI50 values / resistance compared to the WT” value (shortened to “increase of GI50 values / resistance”) worked out at 20 fold. The “biochemical resistance (pMek/pErk)” value in [2] (1 μM, A375 expressing C-RAF resistance mutants) was “conferred resistance”. Further, the “increase of GI50 values compared to the WT” value in test [3] was ~30,000 fold; in test [4] it was ~10,000 fold.
`Cn1cnc2c(F)c(Nc3ccc(Br)cc3Cl)c(C(=O)NOCCO)cc21` [AZD6244]: the pErk entry in [2] (A375 expressing resistance mutants, AZD6244 1 μM 16 h) is given as “diminishing levels”. Besides, the S259 phosphorylation entry in [5] (AZD6244 1 μM 16 h) is listed as “attenuated”.
For orientation: GI50 means the concentration at which growth is held to half of that of the control. For the molecule `CCCS(=O)(=O)Nc1ccc(F)c(C(=O)c2c[nH]c3ncc(Cl)cc23)c1F` [PLX4720], the “increase of GI50 values / resistance” value in test [1] was determined as 30 fold. In [2] (2 μM, A375 cells and WT-C-RAF expressing cells), the “Mek phosphorylation (pMek) and Erk phosphorylation (pErk)” value is on record as “attenuated”. Further, the “pMek and pErk” value in test [2] (2 μM, A375 expressing C-RAF resistance alleles) was “sustained pMek and pErk”. In test [2] (A375 expressing CRAF G361A, high PLX4720 concentrations), the p-MEK entry is recorded as “substantial “paradoxical” activation”. The molecule also came in with a GI50 in test [6] of 400 nM. Besides, the “increase of GI50 values compared to the WT” value in test [3] is recorded as ~100 fold. Moreover, in [5] (setting [16]), the “phosphorylation of S338” value is recorded as “induced” and the “phosphorylation of S621” value is “modest increase”. In addition, the S259 phosphorylation result in test [5] (PLX4720) is recorded as “induced”. Besides, the “increase of GI50 values compared to the WT” value in [4] is reported as ~100 fold.
For `CCCS(=O)(=O)Nc1ccc(F)c(C(=O)c2c[nH]c3ncc(-c4ccc(Cl)cc4)cc23)c1F` [Vemurafenib], the MEK/ERK activation result in test [7] (293/T cells, C-RAF G361A co-expressed with dimerization-deficient R401H double mutant, 1 hr) is “further induced”. Moreover, in test [7] (293T cells expressing C-RAF resistance mutants, 1 h), the “downstream MEK/ERK signaling” value was “robustly induced”. Besides, the “C-RAF kinase activity (p-MEK)” value in [8] was “marked up-regulation”. In test [9], the “C-RAF kinase activity in presence of the drug” value is recorded as “even higher kinase activity”. In test [10], the C-RAF kinase activity entry is listed as “further augmented”. Also, the “increase of GI50 values / resistance” value in test [1] was 50 fold. Growth in test [6] was halved (GI50) at 400 nM. In addition, the “resistance in growth inhibition” value in test [3] (A375 expressing C-RAF P261T) and in test [4] (A375 expressing C-RAF S257P) was “increased resistance” in each case. In addition, the B-RAF/C-RAF heterodimerization result is recorded as “abrogated” in test [11] and “induced” in test [12] (293/T cells ectopically expressing wild-type C-RAF, 2 μM). In addition, in [12] (A375 cells expressing the most robust C-RAF resistance mutants, in the presence of drug), the B-RAF heterodimerization result is recorded as “sustained”. Moreover, the C-RAF dimerization result in test [13] is given as “sustained but not further enhanced”. In addition, in test [5] (293T cells expressing C-RAF resistance mutants, 2 μM, 1 h), the “C-RAF activation (S338 phosphorylation)” value is “robustly induced”. Moreover, the 14-3-3/C-RAF interactions entry in test [14] (293/T cells) is on record as “enhanced”. For the same molecule, the “14-3-3ζ binding to C-RAF S257P, P261T and G361A mutants” value in [14] (A375 cells (BRAF V600E)) is reported as “no effect”. In addition, in test [15], the “14-3-3ζ binding to wild-type C-RAF” value is reported as “modestly decreased”.
